Assay results published in US20260028365A1 (BIOGEN MA INC., priority 2022, published 2026).
Read-outs that look alike come from different tables or passages of the source.

What was measured:
JAK1 = JAK1 (Homo sapiens (Human), UniProt P23458); experiment: pSTAT3 Cell Assay (MSD, TF1 cells); type: cell-based
Method: The inhibitory potency of compounds of the disclosure against the JAK1 kinase activity on STAT3 was evaluated using an MSD-platform plate-based assay format. TF1 cells natively expressing STAT3 and JAK1 were serum-starved to reduce background phosphorylation levels, then cells were treated with compounds of the disclosure for 1 hour with a 10-point four-fold dilution series starting at 10 μM. Cells were then stimulated with 30 ng/mL interleukin 6 (IL-6) for 15 minutes. Cells were lysed and pSTAT3 levels were quantitated using an MSD plate-based assay with anti-STAT3 antibodies. The data were normalized and the percent activity versus log concentration of compound was fitted with a 4-parameter logistic model to generate IC50 curves.

JH2 domain of human Tyk2 = JH2 domain of human Tyk2 (Homo sapiens (Human), UniProt P29597); experiment: JH2 Biochemical Assay (TR-FRET probe displacement); type: binding
JH2 domain of human Tyk2, sequence (P29597 575-876): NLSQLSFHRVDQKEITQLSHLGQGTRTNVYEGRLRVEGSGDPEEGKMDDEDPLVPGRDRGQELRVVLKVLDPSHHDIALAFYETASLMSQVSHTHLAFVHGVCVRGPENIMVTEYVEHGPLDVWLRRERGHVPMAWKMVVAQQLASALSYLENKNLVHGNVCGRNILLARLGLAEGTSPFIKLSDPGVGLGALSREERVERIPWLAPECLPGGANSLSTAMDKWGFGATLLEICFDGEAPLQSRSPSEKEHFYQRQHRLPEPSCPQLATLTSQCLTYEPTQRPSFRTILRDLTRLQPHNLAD

Tyk2 = Tyk2 (Homo sapiens (Human), UniProt P29597); experiment: pSTAT4 Cell Assay (MSD, NK92 cells); type: cell-based
Tyk2, sequence (P29597 whole entry): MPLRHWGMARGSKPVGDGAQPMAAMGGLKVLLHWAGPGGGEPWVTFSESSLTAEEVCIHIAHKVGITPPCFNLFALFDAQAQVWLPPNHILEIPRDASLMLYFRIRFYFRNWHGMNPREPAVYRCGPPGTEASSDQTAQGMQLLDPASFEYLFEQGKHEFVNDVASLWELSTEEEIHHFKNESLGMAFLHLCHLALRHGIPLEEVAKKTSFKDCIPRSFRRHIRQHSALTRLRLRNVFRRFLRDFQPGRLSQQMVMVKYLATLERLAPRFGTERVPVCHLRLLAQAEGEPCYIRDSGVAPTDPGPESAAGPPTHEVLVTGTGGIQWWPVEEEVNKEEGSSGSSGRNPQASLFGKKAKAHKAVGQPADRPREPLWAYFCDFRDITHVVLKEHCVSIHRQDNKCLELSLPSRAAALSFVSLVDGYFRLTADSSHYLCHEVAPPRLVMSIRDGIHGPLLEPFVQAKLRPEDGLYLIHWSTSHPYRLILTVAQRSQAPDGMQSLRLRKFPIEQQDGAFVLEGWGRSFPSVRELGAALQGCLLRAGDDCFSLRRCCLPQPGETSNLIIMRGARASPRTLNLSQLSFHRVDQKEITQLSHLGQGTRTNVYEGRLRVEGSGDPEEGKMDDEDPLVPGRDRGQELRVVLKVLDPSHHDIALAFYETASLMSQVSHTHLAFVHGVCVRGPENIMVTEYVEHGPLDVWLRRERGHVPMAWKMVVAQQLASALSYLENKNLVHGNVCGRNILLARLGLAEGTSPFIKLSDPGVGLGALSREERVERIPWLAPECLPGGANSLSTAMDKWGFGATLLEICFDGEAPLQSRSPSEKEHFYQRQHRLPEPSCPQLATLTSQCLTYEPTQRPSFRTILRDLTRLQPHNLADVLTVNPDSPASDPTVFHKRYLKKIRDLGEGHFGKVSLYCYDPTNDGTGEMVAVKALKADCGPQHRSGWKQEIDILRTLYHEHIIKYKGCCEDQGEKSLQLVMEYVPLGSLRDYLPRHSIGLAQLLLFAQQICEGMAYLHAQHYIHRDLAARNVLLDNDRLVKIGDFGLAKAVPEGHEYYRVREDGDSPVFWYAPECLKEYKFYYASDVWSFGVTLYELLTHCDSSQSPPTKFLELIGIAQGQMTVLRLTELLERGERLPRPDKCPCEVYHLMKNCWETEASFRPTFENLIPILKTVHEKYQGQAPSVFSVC

JAK2 = JAK2 (Homo sapiens (Human), UniProt O60674); experiment: pSTAT5 Cell Assay (MSD, TF1 cells); type: cell-based; details: MSD
JAK2, sequence (O60674 whole entry): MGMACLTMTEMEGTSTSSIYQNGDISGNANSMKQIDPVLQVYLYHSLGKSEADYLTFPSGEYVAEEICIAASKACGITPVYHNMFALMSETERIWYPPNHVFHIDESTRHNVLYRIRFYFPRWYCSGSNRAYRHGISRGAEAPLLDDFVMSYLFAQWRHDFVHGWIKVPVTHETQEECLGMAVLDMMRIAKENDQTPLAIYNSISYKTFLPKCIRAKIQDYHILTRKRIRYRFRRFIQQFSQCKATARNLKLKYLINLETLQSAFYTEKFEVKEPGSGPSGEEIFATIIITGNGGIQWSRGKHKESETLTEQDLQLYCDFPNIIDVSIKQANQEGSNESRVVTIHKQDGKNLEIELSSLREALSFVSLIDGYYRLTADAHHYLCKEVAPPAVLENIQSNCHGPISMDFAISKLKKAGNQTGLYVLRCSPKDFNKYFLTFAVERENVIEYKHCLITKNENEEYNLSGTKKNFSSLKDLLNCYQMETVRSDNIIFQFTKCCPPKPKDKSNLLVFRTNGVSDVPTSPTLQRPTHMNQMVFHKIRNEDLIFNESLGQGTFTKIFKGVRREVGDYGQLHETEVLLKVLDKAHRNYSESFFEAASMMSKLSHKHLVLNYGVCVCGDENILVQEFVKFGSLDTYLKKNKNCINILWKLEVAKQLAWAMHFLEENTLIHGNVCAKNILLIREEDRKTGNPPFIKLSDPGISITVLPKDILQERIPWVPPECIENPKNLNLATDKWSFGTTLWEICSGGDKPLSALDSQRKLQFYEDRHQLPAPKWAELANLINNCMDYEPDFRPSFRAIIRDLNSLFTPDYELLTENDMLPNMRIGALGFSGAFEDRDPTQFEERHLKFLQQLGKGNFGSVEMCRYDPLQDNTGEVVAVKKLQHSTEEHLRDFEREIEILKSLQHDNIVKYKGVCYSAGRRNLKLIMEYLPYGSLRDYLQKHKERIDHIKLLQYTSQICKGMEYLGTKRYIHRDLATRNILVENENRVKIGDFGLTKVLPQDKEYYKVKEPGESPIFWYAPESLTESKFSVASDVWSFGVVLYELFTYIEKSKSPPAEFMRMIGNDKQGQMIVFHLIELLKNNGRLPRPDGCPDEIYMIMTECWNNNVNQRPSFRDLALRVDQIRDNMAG
Method: Compounds of the disclosure were assessed for their ability to inhibit the JAK2 kinase activity on STAT5 utilizing an MSD-platform plate-based assay format. TF1 cells natively expressing STAT5 and JAK2 were serum-starved to reduce background phosphorylation levels, then cells were treated with compounds of disclosure for 1 hour with a 10-point four-fold dilution series starting at 10 μM. Cells were then stimulated with 30 ng/mL IL-3 for 15 minutes. Cells were then lysed and pSTAT5 levels were quantitated using an MSD plate-based assay with anti-STAT5 antibodies. The data were normalized and the percent activity versus log concentration of compound was fitted with a 4-parameter logistic model to generate a curve and an IC50 value.

[1] = JH2 domain of human Tyk2, TR-FRET probe displacement
[2] = TR-FRET probe displacement, JH2 domain of human Tyk2
[3] = TR-FRET probe displacement, JH2 domain

JAK1, sequence (P23458 whole entry): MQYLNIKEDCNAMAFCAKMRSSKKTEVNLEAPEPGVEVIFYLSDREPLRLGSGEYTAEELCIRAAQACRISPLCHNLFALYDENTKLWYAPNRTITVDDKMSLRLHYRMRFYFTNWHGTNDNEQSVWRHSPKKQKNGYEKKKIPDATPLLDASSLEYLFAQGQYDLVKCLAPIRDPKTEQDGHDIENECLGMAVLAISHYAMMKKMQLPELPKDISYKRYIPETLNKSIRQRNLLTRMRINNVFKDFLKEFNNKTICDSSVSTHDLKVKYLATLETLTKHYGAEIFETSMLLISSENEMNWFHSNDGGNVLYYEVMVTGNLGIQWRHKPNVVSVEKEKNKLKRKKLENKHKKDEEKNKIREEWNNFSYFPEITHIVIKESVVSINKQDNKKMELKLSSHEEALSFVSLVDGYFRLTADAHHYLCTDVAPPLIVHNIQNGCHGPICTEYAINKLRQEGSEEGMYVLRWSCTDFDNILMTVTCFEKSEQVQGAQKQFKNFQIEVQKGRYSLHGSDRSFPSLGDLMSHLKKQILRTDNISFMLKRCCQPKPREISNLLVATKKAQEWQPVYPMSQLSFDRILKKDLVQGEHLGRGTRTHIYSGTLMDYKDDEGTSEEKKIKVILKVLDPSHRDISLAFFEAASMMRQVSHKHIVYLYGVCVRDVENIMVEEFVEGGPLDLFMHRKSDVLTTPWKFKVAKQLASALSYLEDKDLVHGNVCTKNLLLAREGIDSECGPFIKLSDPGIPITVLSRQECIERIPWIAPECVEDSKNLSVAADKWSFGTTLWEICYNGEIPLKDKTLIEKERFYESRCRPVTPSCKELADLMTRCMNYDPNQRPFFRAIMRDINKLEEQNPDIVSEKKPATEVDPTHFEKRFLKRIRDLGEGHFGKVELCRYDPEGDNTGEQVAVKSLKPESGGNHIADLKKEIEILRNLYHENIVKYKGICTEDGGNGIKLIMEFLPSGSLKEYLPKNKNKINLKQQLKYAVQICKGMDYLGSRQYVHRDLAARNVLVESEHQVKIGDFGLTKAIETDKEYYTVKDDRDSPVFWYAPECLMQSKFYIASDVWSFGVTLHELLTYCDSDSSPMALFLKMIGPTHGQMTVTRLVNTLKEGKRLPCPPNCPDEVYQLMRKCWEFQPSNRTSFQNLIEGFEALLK

Compound | IC50 (JAK1; IL-6 stimulated, MSD) [µM] | IC50 (JH2 domain of human Tyk2; [1]) [µM] | IC50 (Tyk2; MSD) [µM] | IC50 (JAK2; IL-3 stimulated) [µM] | IC50 (JAK1; IL-6 stimulation, MSD) [µM] | IC50 (JH2 domain of human Tyk2; [2]) [µM] | IC50 (JAK2; IL-3 stimulation) [µM] | IC50 (JAK1; IL-6 stimulated) [µM] | IC50 (JH2 domain of human Tyk2; [3]) [µM] | IC50 (Tyk2) [µM]
CC(=O)Nc1cc(Nc2cc(C)nc(C(C)(F)F)n2)c(OC[C@H]2C[C@H]2F)cn1 (racemic) [Example 425, Cis-rac-N-(4-((2-(1,1-difluoroethyl)-6-methylpyrimidin-4-yl)amino)-5-((2-fluorocyclopropyl)methoxy)pyridin-2-yl)acetamide] | ≥ 1 | ≤ 0.01 | ≤ 0.01 | ≥ 1 |  |  |  |  |  | 
CC(=O)Nc1cc(Nc2cc(C)nc(C(C)(F)F)n2)c(OC[C@H]2C[C@@H]2F)cn1 (racemic) [Example 426, Trans-rac-N-(4-((2-(1,1-difluoroethyl)-6-methylpyrimidin-4-yl)amino)-5-((2-fluorocyclopropyl)methoxy)pyridin-2-yl)acetamide] | ≥ 1 | ≤ 0.01 | ≤ 0.01 | ≥ 1 |  |  |  |  |  | 
CC(=O)Nc1cc(Nc2cc(C)nc(C(C)(F)F)n2)c(OC[C@H]2CCCO2)cn1 (single isomer, unassigned) [Example 294, (R)-N-(4-((2-(1,1-difluoroethyl)-6-methylpyrimidin-4-yl)amino)-5-((tetrahydrofuran-2-yl)methoxy)pyridin-2-yl)acetamide or (S)-N-(4-((2-(1,1-difluoroethyl)-6-methylpyrimidin-4-yl)amino)-5-((tetrahydrofuran-2-yl)methoxy)pyridin-2-yl)acetamide] |  |  | ≤ 0.01 |  | ≥ 1 | ≤ 0.01 | ≥ 1 |  |  | 
CC(=O)Nc1cc(Nc2cc(OC3CC3)nc(C(C)(F)F)n2)c(OC[C@@H]2COCCO2)cn1 (single isomer, unassigned) [Example 453, (S)-N-(5-((1,4-dioxan-2-yl)methoxy)-4-((6-cyclopropoxy-2-(1,1-difluoroethyl)pyrimidin-4-yl)amino)pyridin-2-yl)acetamide or (R)-N-(5-((1,4-dioxan-2-yl)methoxy)-4-((6-cyclopropoxy-2-(1,1-difluoroethyl)pyrimidin-4-yl)amino)pyridin-2-yl)acetamide] | ≥ 1 | ≤ 0.01 | ≤ 0.01 | ≥ 1 |  |  |  |  |  | 
CC(=O)Nc1cc(Nc2cc(OC3CC3)nc(C(C)(F)F)n2)c(OC[C@H]2COCCO2)cn1 (single isomer, unassigned) [Example 454, (R)-N-(5-((1,4-dioxan-2-yl)methoxy)-4-((6-cyclopropoxy-2-(1,1-difluoroethyl)pyrimidin-4-yl)amino)pyridin-2-yl)acetamide or (S)-N-(5-((1,4-dioxan-2-yl)methoxy)-4-((6-cyclopropoxy-2-(1,1-difluoroethyl)pyrimidin-4-yl)amino)pyridin-2-yl)acetamide] | ≥ 1 | ≤ 0.01 | ≤ 0.01 | ≥ 1 |  |  |  |  |  | 
CCOc1cnc(NC(C)=O)cc1Nc1cccc(C(C)(F)F)n1 [Example 1, N-(4-((6-(1,1-difluoroethyl)pyridin-2-yl)amino)-5-ethoxypyridin-2-yl)acetamide] |  |  | ≤ 0.01 |  | ≥ 1 | ≤ 0.01 | ≥ 1 |  |  | 
CCOc1cnc(NC(C)=O)cc1Nc1nccc(C(C)(F)F)n1 [Example 3, N-(4-((4-(1,1-difluoroethyl)pyrimidin-2-yl)amino)-5-ethoxypyridin-2-yl)acetamide] |  |  | 0.01 to 0.1 |  | ≥ 1 | ≤ 0.01 | ≥ 1 |  |  | 
CCOc1cnc(NC(C)=O)cc1Nc1ccnc(C(C)(F)F)n1 [Example 4, N-(4-((2-(1,1-difluoroethyl)pyrimidin-4-yl)amino)-5-ethoxypyridin-2-yl)acetamide] |  |  | 0.01 to 0.1 |  | ≥ 1 | ≤ 0.01 | ≥ 1 |  |  | 
CCOc1cnc(NC(C)=O)cc1Nc1cc(OC)nc(C(C)(F)F)n1 [Example 5, N-(4-((2-(1,1-difluoroethyl)-6-methoxypyrimidin-4-yl)amino)-5-ethoxypyridin-2-yl)acetamide] |  |  | 0.01 to 0.1 |  | ≥ 1 | ≤ 0.01 | ≥ 1 |  |  | 
CCOc1cnc(NC(C)=O)cc1Nc1cc(C)nc(C(C)(F)F)n1 [Example 10, N-(4-((2-(1,1-difluoroethyl)-6-methylpyrimidin-4-yl)amino)-5-ethoxypyridin-2-yl)acetamide] |  |  | 0.01 to 0.1 |  | ≥ 1 | ≤ 0.01 | ≥ 1 |  |  | 
CC(=O)Nc1cc(Nc2cc(C)nc(C(C)(F)F)n2)c(OCC2CC2)cn1 [Example 11, N-(5-(cyclopropylmethoxy)-4-((2-(1,1-difluoroethyl)-6-methylpyrimidin-4-yl)amino)pyridin-2-yl)acetamide] |  |  | 0.01 to 0.1 |  | ≥ 1 | ≤ 0.01 | ≥ 1 |  |  | 
CCOc1cnc(NC(C)=O)cc1Nc1cc(CC)nc(C(C)(F)F)n1 [Example 12, N-(4-((2-(1,1-difluoroethyl)-6-ethylpyrimidin-4-yl)amino)-5-ethoxypyridin-2-yl)acetamide] |  |  | 0.01 to 0.1 |  | ≥ 1 | ≤ 0.01 | ≥ 1 |  |  | 
CCOc1cnc(NC(C)=O)cc1Nc1cc(C2CC2)nc(C(C)(F)F)n1 [Example 13, N-(4-((6-cyclopropyl-2-(1,1-difluoroethyl)pyrimidin-4-yl)amino)-5-ethoxypyridin-2-yl)acetamide] |  |  | 0.01 to 0.1 |  | ≥ 1 | ≤ 0.01 | ≥ 1 |  |  | 
CCOc1cnc(NC(C)=O)cc1Nc1cc(O[C@H]2C[C@H](OC)C2)cc(C(C)(F)F)n1 [Example 14, N-(4-((6-(1,1-difluoroethyl)-4-((1r,3r)-3-methoxycyclobutoxy)pyridin-2-yl)amino)-5-ethoxypyridin-2-yl)acetamide] |  |  | 0.01 to 0.1 |  | ≥ 1 | ≤ 0.01 | ≥ 1 |  |  | 
CCOc1cnc(NC(C)=O)cc1Nc1cc(O[C@H]2C[C@H](OC)C2)nc(C(C)(F)F)n1 [Example 16, N-(4-((2-(1,1-difluoroethyl)-6-((1r,3r)-3-methoxycyclobutoxy)pyrimidin-4-yl)amino)-5-ethoxypyridin-2-yl)acetamide] |  |  | ≤ 0.01 |  | ≥ 1 | ≤ 0.01 | ≥ 1 |  |  | 
CC(=O)Nc1cc(Nc2cc(C)nc(C(C)(F)F)n2)c(OCC(C)(C)F)cn1 [Example 119, N-(4-((2-(1,1-difluoroethyl)-6-methylpyrimidin-4-yl)amino)-5-(2-fluoro-2-methylpropoxy)pyridin-2-yl)acetamide] |  |  | 0.01 to 0.1 |  | ≥ 1 |  | ≥ 1 |  |  | 
CC(=O)Nc1cc(Nc2cc(C)nc(C(C)(F)F)n2)c(OCC2COCCO2)cn1 (stereo not drawn) [Example 135, N-(5-((1,4-dioxan-2-yl)methoxy)-4-((2-(1,1-difluoroethyl)-6-methylpyrimidin-4-yl)amino)pyridin-2-yl)acetamide] |  |  | ≤ 0.01 |  | ≥ 1 |  | ≥ 1 |  |  | 
Cc1cc(Nc2cc(NC(N)=O)ncc2-c2ccc(F)cn2)nc(C(C)(F)F)n1 [Example 291, 1-(4′-((2-(1,1-difluoroethyl)-6-methylpyrimidin-4-yl)amino)-5-fluoro-[2,3′-bipyridin]-6′-yl)urea] |  |  | ≤ 0.01 |  | 0.1 to 1 |  | ≥ 1 |  |  | 
Cc1cc(Nc2cc(NC(N)=O)ncc2-c2ccc(C#N)cn2)nc(C(C)(F)F)n1 [Example 292, 1-(5-cyano-4′-((2-(1,1-difluoroethyl)-6-methylpyrimidin-4-yl)amino)-[2,3′-bipyridin]-6′-yl)urea] |  |  | ≤ 0.01 |  | ≥ 1 |  | ≥ 1 |  |  | 
COCCn1ncc(-c2cnc(NC(C)=O)cc2Nc2ccnc(C(C)(F)F)n2)n1 [Example 710, N-(4-((2-(1,1-difluoroethyl)pyrimidin-4-yl)amino)-5-(2-(2-methoxyethyl)-2H-1,2,3-triazol-4-yl)pyridin-2-yl)acetamide] |  | ≤ 0.01 | ≤ 0.01 | ≥ 1 |  |  |  |  |  | 
CC(=O)Nc1cc(Nc2ccnc(C(C)(F)F)n2)c(-c2ccc(CN3CCOC[C@@H]3C)cn2)cn1 [Example 892, (S)-N-(4′-((2-(1,1-difluoroethyl)pyrimidin-4-yl)amino)-5-((3-methylmorpholino)methyl)-[2,3′-bipyridin]-6′-yl)acetamide] |  |  |  |  |  |  |  | ≥ 1 | ≤ 0.01 | ≤ 0.01
CCc1cc(Nc2cc(NC(C)=O)ncc2-c2cnn(C)n2)nc(C(C)(F)F)n1 [Example 918, N-(4-((2-(1,1-difluoroethyl)-6-ethylpyrimidin-4-yl)amino)-5-(2-methyl-2H-1,2,3-triazol-4-yl)pyridin-2-yl)acetamide] |  |  |  |  |  |  |  | ≥ 1 | ≤ 0.01 | ≤ 0.01
CC(=O)Nc1cc(Nc2cc(C)nc(C(C)(F)F)n2)c(-c2cnc(C(F)F)cn2)cn1 [Example 921, N-(4-((2-(1,1-difluoroethyl)-6-methylpyrimidin-4-yl)amino)-5-(5-(difluoromethyl)pyrazin-2-yl)pyridin-2-yl)acetamide] |  |  |  |  |  |  |  | ≥ 1 | ≤ 0.01 | 0.01 to 0.1
